According to the NIST ThermoML archive (doi:10.1021/je900656c):
± gives the expanded uncertainty stated by the source.

Legend:
[1] = wn = mass fraction of the nth substance listed; conditions: 303.15 K, 101 kPa, Liquid; for viscosity: Capillary tube (Ostwald / Ubbelohde) method; for mass density: Pycnometric method
[2] = 303.15 K, 101 kPa, Liquid; for viscosity: Capillary tube (Ostwald / Ubbelohde) method; for mass density: Pycnometric method

Structure (SMILES): COCCO [2-methoxyethan-1-ol] + CO
- viscosity ([1]; w1 = 0.1): 0.538 ± 0.011 mPa·s
- viscosity ([1]; w1 = 0.2): 0.557 ± 0.011 mPa·s
- viscosity ([1]; w1 = 0.3): 0.577 ± 0.011 mPa·s
- viscosity ([1]; w1 = 1): 1.404 ± 0.023 mPa·s
- mass density ([1]; w1 = 0.1): 798 ± 1 kg/m3
- mass density ([1]; w1 = 0.2): 817 ± 2 kg/m3
- mass density ([1]; w1 = 0.3): 833 ± 2 kg/m3
- mass density ([1]; w1 = 1): 956 ± 2 kg/m3

Structure (SMILES): COCCO [2-methoxyethan-1-ol]
- viscosity [2]: 1.404 ± 0.023 mPa·s
- mass density [2]: 956 ± 2 kg/m3

Structure (SMILES): CO [methanol]
- viscosity [2]: 0.523 ± 0.01 mPa·s
- mass density [2]: 782 ± 1 kg/m3

Structure (SMILES): CO [methanol] + COCCO
- viscosity ([1]; w2 = 0): 0.523 ± 0.01 mPa·s
- mass density ([1]; w2 = 0): 782 ± 1 kg/m3
